# Assays:
# MDA-MB-231 cells = assay: Cell proliferation assay (CellTiter-Glo), MDA-MB-231; type: cell-based; details: Homo sapiens, MDA-MB-231, 72 h, 72 h treatment, Celltiter-Glo luminescence
# Method in brief: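 MDA-MB-231 (RPMI-1640/10% FBS) and EVSA-T (MEM/10% FBS) cells, 10000 cells/well, exposed 72 h to compound at […]. Viability read by CellTiter-Glo luminescence after 15 min at room temperature. IC50 from control-normalised curve fitting.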
# EVSA-T cells = assay: Cell proliferation assay (CellTiter-Glo), EVSA-T; type: cell-based; details: Homo sapiens, EVSA-T, 72 h, 72 h treatment, Celltiter-Glo luminescence
# Protocol: Example 238: Cell Proliferation Assay
# MDA-MB-231 and EVSA-T cells (10000 cells/well) were plated onto 96-well plates (Corning, Cat #3917) in 95 μL of medium (RPMI-1640 containing 10% FBS and MEM containing 10% FBS, respectively). Compounds with various concentrations ([…]) were added to the wells. After treatment for 72 h, 30 μL of Celltiter-Glo reagent (Promega, Cat #G7573) was added and incubated at room temperature for 15 min, then the luminescent signal was determined using a microplate reader (Biotek, SynergyH1). The inhibitor dose-response curves were analyzed using normalized IC50 regression curve fitting with control based normalization.
Compound,IC50 (MDA-MB-231 cells) [µM],IC50 (EVSA-T cells) [µM]
"C[C@@H]1CN(CC(=O)N2CC(C)(C)c3c2cc(Cc2ccc(F)cc2)c2nc(CC#N)nn32)[C@@H](CN2CCOC[C@H]2C)CN1 [Compound 196, 2-(4-(4-fluorobenzyl)-8,8-dimethyl-6-(2-((2R,5R)-5-methyl-2-(((R)-3-methylmorpholino)methyl)piperazin-1-yl)acetyl)-7,8-dihydro-6H-pyrrolo[2,3-e][1,2,4]triazolo[1,5-a]pyridin-2-yl)acetonitrile]",0.043,0.004
"C[C@@H]1CN(CC(=O)N2CC(C)(C)c3c2cc(Cc2ccc(F)cc2)c2nn(Cc4cccnc4)c(=O)n32)[C@@H](CN2CCOC[C@H]2C)CN1 [Compound 245, 4-(4-fluorobenzyl)-8,8-dimethyl-6-(2-((2R,5R)-5-methyl-2-(((R)-3-methylmorpholino)methyl)piperazin-1-yl)acetyl)-2-(pyridin-3-ylmethyl)-2,6,7,8-tetrahydro-1H-pyrrolo[2,3-e][1,2,4]triazolo[4,3-a]pyridin-1-one]",0.005,0.0062
"C[C@@H]1CN(CC(=O)N2CC(C)(C)c3c2cc(Cc2ccc(F)cc2Cl)c2ncnn32)[C@@H](CN2CCOC[C@H]2C)CN1 [Compound 123, 1-(4-(2-chloro-4-fluorobenzyl)-8,8-dimethyl-7,8-dihydro-6H-pyrrolo[2,3-e][1,2,4]triazolo[1,5-a]pyridin-6-yl)-2-((2R,5R)-5-methyl-2-(((R)-3-methylmorpholino)methyl)piperazin-1-yl)ethan-1-one]",0.12,0.043
"C[C@@H]1CN(CC(=O)N2CC(C)(C)c3c2cc(Cc2ccc(F)cc2)c2nn(C(C)(C)CO)c(=O)n32)[C@@H](CN2CCOC[C@H]2C)CN1 [Compound 260, 4-(4-fluorobenzyl)-2-(1-hydroxy-2-methylpropan-2-yl)-8,8-dimethyl-6-(2-((2R,5R)-5-methyl-2-(((R)-3-methylmorpholino)methyl)piperazin-1-yl)acetyl)-2,6,7,8-tetrahydro-1H-pyrrolo[2,3-e][1,2,4]triazolo[4,3-a]pyridin-1-one]",0.029,0.0027
"CC(=O)N(C)c1nc2c(Cc3ccc(F)cc3)cc3c(n2n1)C(C)(C)CN3C(=O)CN1C[C@@H](C)NC[C@@H]1CN1CCOC[C@H]1C [Compound 238, N-(4-(4-fluorobenzyl)-8,8-dimethyl-6-(2-((2R,5R)-5-methy 1-2-(((R)-3-methylmorpholino)methyl)piperazin-1-yl)acetyl)-7,8-dihydro-6H-pyrrolo[2,3-e][1,2,4]triazolo[1,5-a]pyridin-2-yl)-N-methylacetamide]",0.031,0.0013
"C[C@@H]1CN(CC(=O)N2CC(C)(C)c3c2cc(Cc2ccc(F)cc2)c2nn(CC#N)c(=O)n32)[C@@H](CN2CCOC[C@H]2C)CN1 [Compound 185, 2-(4-(4-fluorobenzyl)-8,8-dimethyl-6-(2-((2R,5R)-5-methyl-2-(((R)-3-methylmorpholino)methyl)piperazin-1-yl)acetyl)-1-oxo-7,8-dihydro-1H-pyrrolo[2,3-e][1,2,4]triazolo[4,3-a]pyridin-2(6H)-yl)acetonitrile]",0.023,0.007
"C[C@@H]1CN(CC(=O)N2CC(C)(C)c3c2cc(Cc2ccc(F)cc2)c2ncnn32)[C@@H](CN2Cc3c(F)cccc3C2=O)CN1 [Compound 99, 4-fluoro-2-(((2R,5R)-1-(2-(4-(4-fluorobenzyl)-8,8-dimethyl-7,8-dihydro-6H-pyrrolo[2,3-e][1,2,4]triazolo[1,5-a]pyridin-6-yl)-2-oxoethyl)-5-methylpiperazin-2-yl)methyl)isoindolin-1-one]",0.012,0.005
"C[C@@H]1CN(CC(=O)N2CC(C)(C)c3c2cc(Cc2ccc(F)cc2)c2nc(C(F)(F)F)cn32)[C@@H](CN2[C@@H](C)COC[C@@H]2C)CN1 [Compound 162, 2-((2R,5R)-2-(((3S,5S)-3,5-dimethylmorpholino)methyl)-5-methylpiperazin-1-yl)-1-(4-(4-fluorobenzyl)-8,8-dimethyl-2-(trifluoromethyl)-7,8-dihydro-6H-imidazo[1,2-a]pyrrolo[2,3-e]pyridin-6-yl)ethan-1-one]",0.046,0.01
"C[C@@H]1CN(CC(=O)N2CC(C)(C)c3c2cc(Cc2ccc(F)cc2)c2nc(P(C)(C)=O)nn32)[C@@H](CN2CCOC[C@H]2C)CN1 [Compound 209, 1-(2-(dimethylphosphoryl)-4-(4-fluorobenzyl)-8,8-dimethyl-7,8-dihydro-6H-pyrrolo[2,3-e][1,2,4]triazolo[1,5-a]pyridin-6-yl)-2-((2R,5R)-5-methyl-2-(((R)-3-methylmorpholino)methyl)piperazin-1-yl)ethan-1-one]",2.16,
"C[C@@H]1CN(CC(=O)N2CC(C)(C)c3c2cc(Cn2ccc(F)cc2=O)c2ncnn32)[C@@H](CN2CCOC[C@H]2C)CN1 [Compound 151, 1-((8,8-dimethyl-6-(2-((2R,5R)-5-methyl-2-(((R)-3-methylmorpholino)methyl)piperazin-1-yl)acetyl)-7,8-dihydro-6H-pyrrolo[2,3-e][1,2,4]triazolo[1,5-a]pyridin-4-yl)methyl)-4-fluoropyridin-2(1H)-one]",3.8,
"C[C@@H]1CN(CC(=O)N2CC(C)(C)c3c2cc(Cc2ccc(F)cc2)c2cnc(C4CCOCC4)n32)[C@@H](CN2CCOC[C@H]2C)CN1 [Example 7, 1-(4-(4-fluorobenzyl)-8,8-dimethyl-1-(tetrahydro-2H-pyran-4-yl)-7,8-dihydro-6H-imidazo[1,5-a]pyrrolo[2,3-e]pyridin-6-yl)-2-((2R,5R)-5-methyl-2-(((R)-3-methylmorpholino)methyl)piperazin-1-yl)ethan-1-one]",0.14,
"C[C@@H]1CN(CC(=O)N2CC(C)(C)c3c2cc(Cc2ccc(F)cc2)n2cnnc32)[C@@H](CN2CCOC[C@H]2C)CN1 [Example 23, 1-(5-(4-fluorobenzyl)-9,9-dimethyl-8,9-dihydro-7H-pyrrolo[3,2-c][1,2,4]triazolo[4,3-a]pyridin-7-yl)-2-((2R,5R)-5-methyl-2-(((R)-3-methylmorpholino)methyl)piperazin-1-yl)ethan-1-one]",0.32,
"C[C@@H]1CN(CC(=O)N2CC(C)(C)c3c2cc(Cc2ccc(F)cc2)c2nn(CC(C)(C)O)c(=O)n32)[C@@H](CN2CC3CC(C2)O3)CN1 [Compound 286, 6-(2-((2R,5R)-2-((6-oxa-3-azabicyclo[3.1.1]heptan-3-yl)methyl)-5-methylpiperazin-1-yl)acetyl)-4-(4-fluorobenzyl)-2-(2-hydroxy-2-methylpropyl)-8,8-dimethyl-2,6,7,8-tetrahydro-1H-pyrrolo[2,3-e][1,2,4]triazolo[4,3-a]pyridin-1-one]",0.27,
"C[C@@H]1CN(CC(=O)N2CC(C)(C)c3c2cc(Cc2ccc(F)cc2)c2nn(CC(C)(C)O)c(=O)n32)[C@@H](CN2C[C@H]3C[C@@H]2CO3)CN1 [Compound 284, 6-(2-((2R,5R)-2-(((1R,4R)-2-oxa-5-azabicyclo[2.2.1]heptan-5-yl)methyl)-5-methylpiperazin-1-yl)acetyl)-4-(4-fluorobenzyl)-2-(2-hydroxy-2-methylpropyl)-8,8-dimethyl-2,6,7,8-tetrahydro-1H-pyrrolo[2,3-e][1,2,4]triazolo[4,3-a]pyridin-1-one]",0.25,
"C[C@@H]1CN(CC(=O)N2CC(C)(C)c3c2cc(Cc2ccc(F)cc2)c2nn(CC(C)(C)O)c(=O)n32)[C@@H](CN2C[C@@H]3C[C@H]2CO3)CN1 [Compound 283, 6-(2-((2R,5R)-2-(((1S,4S)-2-oxa-5-azabicyclo[2.2.1]heptan-5-yl)methyl)-5-methylpiperazin-1-yl)acetyl)-4-(4-fluorobenzyl)-2-(2-hydroxy-2-methylpropyl)-8,8-dimethyl-2,6,7,8-tetrahydro-1H-pyrrolo[2,3-e][1,2,4]triazolo[4,3-a]pyridin-1-one]",0.36,
"C[C@@H]1CN(CC(=O)N2CC(C)(C)c3c2cc(Cc2ccc(F)cc2)c2nc(N4CCOCC4=O)nn32)[C@@H](CN2CCOC[C@H]2C)CN1 [Compound 208, 4-(4-(4-fluorobenzyl)-8,8-dimethyl-6-(2-((2R,5R)-5-methyl-2-(((R)-3-methylmorpholino)methyl)piperazin-1-yl)acetyl)-7,8-dihydro-6H-pyrrolo[2,3-e][1,2,4]triazolo[1,5-a]pyridin-2-yl)morpholin-3-one]",0.21,
"C[C@@H]1CN(CC(=O)N2CC(C)(C)c3c2cc(Cc2ccc(F)cc2)c2nc(C(F)(F)F)cn32)C(Cn2ccnc2C(F)(F)F)CN1 (stereo in doubt) [Compound 177, 1-(4-(4-fluorobenzyl)-8,8-dimethyl-2-(trifluoromethyl)-7,8-dihydro-6H-imidazo[1,2-a]pyrrolo[2,3-e]pyridin-6-yl)-2-((2S,5R)-5-methyl-2-((2-(trifluoromethyl)-1H-imidazol-1-yl)methyl)piperazin-1-yl)ethan-1-one]",0.32,
"C[C@@H]1CN(CC(=O)N2CC(C)(C)c3c2cc(Cc2ccc(F)cc2)c2nn(CC(C)(C)O)c(=O)n32)[C@@H](CN2CCC(F)(F)C[C@H]2C)CN1 [Compound 281, 6-(2-((2R,5R)-2-(((R)-4,4-difluoro-2-methylpiperidin-1-yl)methyl)-5-methylpiperazin-1-yl)acetyl)-4-(4-fluorobenzyl)-2-(2-hydroxy-2-methylpropyl)-8,8-dimethyl-2,6,7,8-tetrahydro-1H-pyrrolo[2,3-e][1,2,4]triazolo[4,3-a]pyridin-1-one]",0.026,
